From US20250034108A1, “SODIUM CHANNEL BLOCKERS” (NOVARTIS AG, priority 2023, published 2025)

What was measured:
[1] = target: T1, human Nav1.5 (Homo sapiens (Human), UniProt Q14524); experiment: Qpatch automated patch-clamp, peak Nav1.5 current inhibition, 5-Hz AF-like assay (holding potential -85 mV); assay type: cell-based; details: CHO-K1 cells stably expressing human Nav1.5, holding potential -85 mV, Table 5, read-out: Nav1.5 IC50 (5 Hz, AF Rate)
In short: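 CHO-K1 cells stably expressing human Nav1.5, whole-cell automated patch-clamp at room temperature, CsF-based internal. Compounds pre-incubated 3 min each at ascending 0-30 μM; +10 to −85 mV ramp (150 ms) applied at 5 Hz for 12 s from −85 mV holding. IC50 from last-pulse peak current, vehicle-normalized for run-down.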

[2] = target: T1, human Nav1.5; experiment: Qpatch automated patch-clamp, peak Nav1.5 current inhibition, 1 Hz with 50 nM ATX-II (holding potential -100 mV); assay type: cell-based; details: CHO-K1 cells stably expressing human Nav1.5, read-out: Nav1.5 IC50 (1 Hz, ATXII)
In short: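 CHO-K1 cells stably expressing human Nav1.5, whole-cell recording at room temperature; 3-min pre-incubation at 0–30 uM ascending, with or without 50 nM ATX-II. Pulses to −10 mV (400 ms) from −100 mV at 1 Hz for 25 s; last-pulse peak current normalized to pre-compound and DMSO run-down, IC50 fitted.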

[3] = target: T1, human Nav1.5; experiment: Qpatch automated patch-clamp, peak Nav1.5 current inhibition, 1 Hz sinus rate, ventricular condition (holding potential -100 mV); assay type: cell-based; details: CHO-K1 cells stably expressing human Nav1.5, without ATX-II
Text: Electrophysiology was used to measure the ionic currents in isolated living cells using automated patch-clamp recording, performed using an automated patch-clamp machine called Qpatch (Sophion Bioscience). Two different assay conditions were used to identify compounds with atrial-selective potential. The 5-Hz AF-like assay has more depolarized holding potential at −85 mV to mimic atrial resting membrane potential (RMP) and was used to identify compounds of strong rate-dependence. Active, rate-dependent compounds were then screened at 1 Hz (i.e., sinus rate) at the holding potential of −100 mV to mimic the ventricular scenario and help identify compounds with the largest potency separation or attenuation from the 5-Hz AF-like assay. Such compounds have the potential for treating AF without the QRS liability inherent to Class Ic drugs.
The sodium current conducted through a cell (via Nav1.5) or electrical signals were processed through a low-pass filter at 5 KHz, re-digitalized and acquired at 20 kHz. Series resistance was not compensated and leak subtraction was performed.
1 to 3 million Chinese Hamster Ovary cells (also known as CHO-K1) stably expressing human Nav1.5 were seeded into […] culture flasks with 25 mL medium (consisting of Gibco Dulbecco's Modified Eagle Medium as a base medium with 1% MEM non-essential amino acids, 400 μg/mL Geneticin, 5 μg/mL puromycin and 10% fetal bovine serum) 48-72 hours prior to the experiments. On the day of the experiment, cells were washed once with phosphate-buffered saline (also known as PBS; Gibco) detached with Detachin™ (Genlantis), and re-suspended in CHO—S-SFM II media (Gibco) at 200,000 cells/mL. The CHO—S-SFM II was replaced with assay solutions prior to the assays. Whole-cell currents were recorded at room temperature in the whole-cell configuration. The external aqueous assay solution (pH=7.4; Osm=307-315) contained the following (the concentration for each component is expressed in parentheses in mM): NaCl (140 mM), KCl (4 mM), CaCl2) (2 mM), MgCl2 (1 mM), 4-(2-hydroxyethyl)-1-piperazineethanesulfonic acid, also known as HEPES (10 mM), and glucose (5 mM). The internal aqueous assay solution (pH=7.2; Osm=292-295) contained the following (the concentration for each component is expressed in parentheses in mM): CsF (110 mM), CsCl (10 mM), NaCl (10 mM), HEPES (10 mM), and ethylene glycolbis(β-aminoethyl ether)-N,N,N′,N′-tetraacetic acid, also known as EGTA (10 mM).
To assess peak Nav1.5 current inhibition mimicking a ventricular condition at sinus rate with or without ATX-II (Nav1.5 IC50 (1 Hz, ATXII) (μM) or (1 Hz, Sinus Rate) (μM)), compounds were first prepared at 10 mM in DMSO, and cells were pre-incubated with test compounds at each concentration for 3 min. in an ascending order of 0, 0.37, 1.1, 3.3, 10 and 30 uM. In the assay with ATX-II (Alomone Labs), 50 nM ATX-II was included during the 3-min. compound incubation. A square pulse (−10 mV; 400 ms and a holding potential at −100 mV) was run at 1 Hz for 25 s until no further inhibition or Nav1.5 current change was observed. The percent inhibition (expressed as ([Iafter compound treatment/Ibefore compound treatment]×100%) is calculated by normalizing the peak current amplitude at the last pulse of each of the 6 compound concentrations by the amplitude before exposure to the test compound. The compiled data was further normalized by vehicle control (DMSO) to account for Nav1.5 current run-down, and IC50 was calculated by Matlab (MathWorks, USA).

[4] = Hygroscopicity / water uptake of crystalline forms of Example 1; assay type: physicochemical; details: for hygroscopicity: crystalline form

T1 sequence (Q14524 whole entry): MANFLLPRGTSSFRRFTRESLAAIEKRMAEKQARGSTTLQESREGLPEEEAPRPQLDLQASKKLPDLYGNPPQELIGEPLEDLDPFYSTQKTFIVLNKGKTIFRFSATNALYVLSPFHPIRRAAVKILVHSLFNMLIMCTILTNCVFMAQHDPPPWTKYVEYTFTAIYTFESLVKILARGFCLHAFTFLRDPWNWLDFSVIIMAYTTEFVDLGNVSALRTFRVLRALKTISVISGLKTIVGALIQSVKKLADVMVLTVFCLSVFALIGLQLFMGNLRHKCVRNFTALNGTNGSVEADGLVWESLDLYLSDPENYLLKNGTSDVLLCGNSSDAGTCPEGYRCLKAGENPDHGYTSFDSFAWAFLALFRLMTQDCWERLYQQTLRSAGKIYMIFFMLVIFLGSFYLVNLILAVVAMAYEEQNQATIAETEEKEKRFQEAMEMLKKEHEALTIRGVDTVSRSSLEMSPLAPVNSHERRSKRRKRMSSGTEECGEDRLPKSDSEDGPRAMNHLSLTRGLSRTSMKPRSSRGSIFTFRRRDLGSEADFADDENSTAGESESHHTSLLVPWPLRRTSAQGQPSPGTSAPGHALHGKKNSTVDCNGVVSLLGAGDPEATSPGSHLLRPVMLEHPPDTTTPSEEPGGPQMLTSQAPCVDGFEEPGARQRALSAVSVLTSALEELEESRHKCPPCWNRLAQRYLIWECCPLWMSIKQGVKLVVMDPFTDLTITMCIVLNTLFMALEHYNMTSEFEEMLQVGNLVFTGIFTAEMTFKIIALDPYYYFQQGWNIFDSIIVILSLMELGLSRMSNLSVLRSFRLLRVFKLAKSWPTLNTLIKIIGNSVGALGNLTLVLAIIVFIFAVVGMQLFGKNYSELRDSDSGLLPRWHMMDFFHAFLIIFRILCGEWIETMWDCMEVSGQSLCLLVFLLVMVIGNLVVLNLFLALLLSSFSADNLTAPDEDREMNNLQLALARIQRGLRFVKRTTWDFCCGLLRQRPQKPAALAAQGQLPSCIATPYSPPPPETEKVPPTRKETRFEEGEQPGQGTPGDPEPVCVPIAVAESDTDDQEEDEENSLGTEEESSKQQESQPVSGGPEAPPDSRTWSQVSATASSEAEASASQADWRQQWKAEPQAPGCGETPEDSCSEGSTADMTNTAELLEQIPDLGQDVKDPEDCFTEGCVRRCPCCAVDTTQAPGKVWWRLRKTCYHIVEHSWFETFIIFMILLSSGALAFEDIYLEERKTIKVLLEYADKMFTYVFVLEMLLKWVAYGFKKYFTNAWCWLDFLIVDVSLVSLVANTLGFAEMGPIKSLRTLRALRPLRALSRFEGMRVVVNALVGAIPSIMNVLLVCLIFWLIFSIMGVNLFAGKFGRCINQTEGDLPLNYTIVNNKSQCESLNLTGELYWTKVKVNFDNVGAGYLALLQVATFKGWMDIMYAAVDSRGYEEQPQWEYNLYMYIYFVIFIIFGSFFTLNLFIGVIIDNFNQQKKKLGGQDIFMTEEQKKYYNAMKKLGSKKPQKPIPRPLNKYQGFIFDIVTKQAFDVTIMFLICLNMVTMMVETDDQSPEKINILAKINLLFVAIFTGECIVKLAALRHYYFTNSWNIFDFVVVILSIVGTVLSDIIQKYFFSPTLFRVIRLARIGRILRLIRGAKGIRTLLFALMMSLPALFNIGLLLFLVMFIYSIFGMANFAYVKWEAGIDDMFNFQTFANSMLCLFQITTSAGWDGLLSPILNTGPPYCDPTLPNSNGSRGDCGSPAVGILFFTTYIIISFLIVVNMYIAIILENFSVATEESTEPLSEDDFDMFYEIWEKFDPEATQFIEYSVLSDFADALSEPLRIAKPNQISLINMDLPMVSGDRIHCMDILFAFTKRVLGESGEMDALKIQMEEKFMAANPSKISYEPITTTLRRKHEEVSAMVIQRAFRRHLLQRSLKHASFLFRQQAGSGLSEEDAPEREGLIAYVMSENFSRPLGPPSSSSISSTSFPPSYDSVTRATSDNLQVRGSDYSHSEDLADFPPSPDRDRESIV

reversible water uptake ([4]; at 90% relative humidity) | SMILES | IC50 [1] [µM] | IC50 [2] [µM] | IC50 [3] [µM] | hygroscopicity [4]
 | CC(O)(CS(N)(=O)=O)c1nc(-c2nnn(Cc3cc(OC(F)(F)F)ccc3F)n2)ccc1F (single isomer, unassigned) [Example 44, (R or S)-2-(3-fluoro-6-(2-(2-fluoro-5-(trifluoromethoxy)benzyl)-2H-tetrazol-5-yl)pyridin-2-yl)-2-hydroxypropane-1-sulfonamide] | 4.6 | 19 | > 30 | 
 | CC(O)(CS(N)(=O)=O)c1nc(-c2nnn(Cc3cc(OC(F)(F)F)ccc3F)n2)ccc1F (single isomer, unassigned) [Example 45, (R or S)-2-(3-fluoro-6-(2-(2-fluoro-5-(trifluoromethoxy)benzyl)-2H-tetrazol-5-yl)pyridin-2-yl)-2-hydroxypropane-1-sulfonamide] | 4.8 | > 30 | > 30 | 
 | CC(O)(CS(N)(=O)=O)c1cccc(-c2nnn(Cc3cc(OC4CC4)ccc3F)n2)n1 (single isomer, unassigned) [Example 46, (R or S)-2-(6-(2-(5-cyclopropoxy-2-fluorobenzyl)-2H-tetrazol-5-yl)pyridin-2-yl)-2-hydroxypropane-1-sulfonamide] | 8.3 | > 30 | > 30 | 
 | CC(O)(CS(N)(=O)=O)c1cccc(-c2nnn(Cc3cc(OC4CC4)ccc3F)n2)n1 (single isomer, unassigned) [Example 47, (R or S)-2-(6-(2-(5-cyclopropoxy-2-fluorobenzyl)-2H-tetrazol-5-yl)pyridin-2-yl)-2-hydroxypropane-1-sulfonamide] | 3.9 | 13 | 27 | 
 | CC(C(O)c1cccc(-c2nnn(Cc3cc(OC(F)(F)F)ccc3F)n2)n1)S(N)(=O)=O (single isomer, unassigned) [Example 52, (JR or 1S,2R or 2S)-1-(6-(2-(2-fluoro-5-(trifluoromethoxy)benzyl)-2H-tetrazol-5-yl)pyridin-2-yl)-1-hydroxypropane-2-sulfonamide] | 2.9 | 22 | 49 | 
 | C[C@](O)(CS(N)(=O)=O)c1cccc(-c2nnn(Cc3cc(OC(F)(F)F)ccc3F)n2)n1 [Example 1, (R)-2-(6-(2-(2-fluoro-5-(trifluoromethoxy)benzyl)-2H-tetrazol-5-yl)pyridin-2-yl)-2-hydroxypropane-1-sulfonamide] | 3.1 | 19 | 22 | 
about 0.10% | C[C@](O)(CS(N)(=O)=O)c1cccc(-c2nnn(Cc3cc(OC(F)(F)F)ccc3F)n2)n1 [Modification A-1, (R)-2-(6-(2-(2-fluoro-5-(trifluoromethoxy)benzyl)-2H-tetrazol-5-yl)pyridin-2-yl)-2-hydroxypropane-1-sulfonamide] |  |  |  | not hygroscopic
 | C[C@](O)(CS(N)(=O)=O)c1cccc(-c2nnn(Cc3cc(OC(F)(F)F)ccc3F)n2)n1 [Modification A-2, (R)-2-(6-(2-(2-fluoro-5-(trifluoromethoxy)benzyl)-2H-tetrazol-5-yl)pyridin-2-yl)-2-hydroxypropane-1-sulfonamide] |  |  |  | hygroscopic and shows gel formation at 70% relative humidity and above
 | C[C@](O)(CS(N)(=O)=O)c1cccc(-c2nnn(Cc3cc(OC(F)(F)F)ccc3F)n2)n1 [Modification A-3, (R)-2-(6-(2-(2-fluoro-5-(trifluoromethoxy)benzyl)-2H-tetrazol-5-yl)pyridin-2-yl)-2-hydroxypropane-1-sulfonamide] |  |  |  | hygroscopic and shows gel formation at 70% relative humidity and above
